Measurements reported in PubChem BioAssay AID624129 (Sanford-Burnham Center for Chemical Genomics, 2012).
Active and inactive are the calls of the source. The rule behind the calls is not given here.

How the values were obtained:
Assay in all cases: potency against CXCR6 with APJ panel – cell-based, beta-arrestin, DiscoveRx, uHTS hits, dose response (AID 624129)
[1] = target: C-X-C chemokine receptor type 6 (Homo sapiens) (UniProt O00574); conditions: CXCR6 beta-arrestin (DiscoveRx) antagonist cell assay; for inhibition: CXCR6, run 1, dose range 2, at 80 µM (top of the series)
[2] = target: Beta-galactosidase (Escherichia coli) (UniProt Q8VNN2); conditions: CXCR6 beta-arrestin (DiscoveRx) antagonist cell assay, b-galactosidase
[3] = target: Apelin receptor (Homo sapiens) (UniProt P35414); conditions: CXCR6 beta-arrestin (DiscoveRx) antagonist cell assay, APJ
[4] = target: C-C chemokine receptor type 6 (Homo sapiens) (UniProt P51684); conditions: CXCR6 beta-arrestin (DiscoveRx) antagonist cell assay
[5] = CXCR6, dose range 1, mean IC50 across replicates
[6] = dose range 1, mean IC50 across replicates
[7] = CCR6, dose range 1, mean IC50 across replicates

Sequence of C-X-C chemokine receptor type 6 (Homo sapiens) (O00574 whole entry, looked up): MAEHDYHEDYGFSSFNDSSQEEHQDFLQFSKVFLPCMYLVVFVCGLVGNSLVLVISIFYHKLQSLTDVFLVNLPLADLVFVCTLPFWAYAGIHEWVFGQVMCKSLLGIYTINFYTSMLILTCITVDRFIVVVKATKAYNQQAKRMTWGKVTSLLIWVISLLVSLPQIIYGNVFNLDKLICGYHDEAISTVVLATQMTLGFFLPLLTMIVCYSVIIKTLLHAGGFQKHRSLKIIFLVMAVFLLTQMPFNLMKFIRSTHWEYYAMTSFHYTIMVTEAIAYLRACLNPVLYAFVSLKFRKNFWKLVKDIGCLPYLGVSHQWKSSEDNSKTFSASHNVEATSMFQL
Sequence of Beta-galactosidase (Escherichia coli) (Q8VNN2 whole entry, looked up): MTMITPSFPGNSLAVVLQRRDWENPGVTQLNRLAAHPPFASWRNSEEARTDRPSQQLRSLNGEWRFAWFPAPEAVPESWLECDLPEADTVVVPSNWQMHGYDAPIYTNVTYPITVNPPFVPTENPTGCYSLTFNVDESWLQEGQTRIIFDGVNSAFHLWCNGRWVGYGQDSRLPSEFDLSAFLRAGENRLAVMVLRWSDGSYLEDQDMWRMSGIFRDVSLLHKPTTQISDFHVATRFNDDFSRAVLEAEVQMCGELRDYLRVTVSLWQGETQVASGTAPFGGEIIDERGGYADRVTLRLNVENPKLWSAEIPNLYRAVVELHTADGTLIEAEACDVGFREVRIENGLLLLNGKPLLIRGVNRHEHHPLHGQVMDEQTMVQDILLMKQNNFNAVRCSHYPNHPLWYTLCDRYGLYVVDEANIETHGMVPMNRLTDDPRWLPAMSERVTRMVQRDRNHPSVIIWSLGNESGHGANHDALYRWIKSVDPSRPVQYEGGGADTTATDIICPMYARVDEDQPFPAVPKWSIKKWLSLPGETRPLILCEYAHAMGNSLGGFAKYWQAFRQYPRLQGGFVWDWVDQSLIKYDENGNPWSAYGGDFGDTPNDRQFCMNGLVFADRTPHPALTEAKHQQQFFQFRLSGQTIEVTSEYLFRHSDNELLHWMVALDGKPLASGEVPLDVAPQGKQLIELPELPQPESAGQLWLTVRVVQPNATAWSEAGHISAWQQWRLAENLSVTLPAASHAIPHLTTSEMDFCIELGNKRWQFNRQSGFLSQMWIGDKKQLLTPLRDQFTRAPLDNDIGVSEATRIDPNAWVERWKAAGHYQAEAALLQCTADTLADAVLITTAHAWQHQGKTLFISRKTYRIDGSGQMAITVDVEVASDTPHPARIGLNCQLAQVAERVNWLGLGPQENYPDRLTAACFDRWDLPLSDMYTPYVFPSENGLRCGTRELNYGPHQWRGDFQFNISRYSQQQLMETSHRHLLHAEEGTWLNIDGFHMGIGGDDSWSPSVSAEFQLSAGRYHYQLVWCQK

| SMILES | IC50 ([1]; CXCR6, dose range 1) | IC50 [1, 5] [µM] | inhibition [1] [%] | IC50 ([1]; CXCR6, run 2, dose range 1) [µM] | IC50 ([2]; dose range 1) | IC50 [2, 6] [µM] | IC50 [3, 6] [µM] | IC50 ([3]; run 2, dose range 1) [µM] | IC50 ([3]; run 3, dose range 1) [µM] | IC50 [4, 7] [µM] | IC50 ([4]; CCR6, run 2, dose range 1) [µM] | IC50 ([1]; CXCR6, run 1, dose range 2) [µM] | IC50 ([1]; CXCR6, run 2, dose range 2) [µM] | IC50 ([3]; dose range 1) [µM] | IC50 ([4]; CCR6, dose range 1) [µM] |
| --- | --- | --- | --- | --- | --- | --- | --- | --- | --- | --- | --- | --- | --- | --- | --- |
| O=C(Nc1nc(-c2ccccn2)cs1)c1cc(Cl)ccc1[N+](=O)[O-] | > 80 µM (inactive) | > 80 | -48.8 | > 80 | > 80 µM (inactive) | > 80 | > 80 | > 80 | > 80 | > 80 | > 80 |  |  |  |  |
| CC(=O)OCCCNc1cc(Sc2ccc(C)cc2)c2nonc2c1[N+](=O)[O-] | > 80 µM (inactive) | > 80 | -24.2 | > 80 | > 80 µM (inactive) | > 80 | > 80 | > 80 | > 80 | > 80 | > 80 |  |  |  |  |
| COc1ccc(/C=C/c2ccc3cccc(O)c3n2)c(OC)c1OC | 5 µM | 4.12 |  | 5.18 | > 80 µM (inactive) | > 80 | 6.97 | 8.96 | 6.98 | 3.08 | 2.45 | 3.43 | 2.88 | 4.95 | 3.71 |
| COc1ccc(C(=O)/C=C/C(=O)N(CC(=O)NC2CCCCC2)Cc2ccccc2)c(O)c1 | > 80 µM (inactive) | > 80 | 9.34 | > 80 | > 80 µM (inactive) | > 80 | > 80 | > 80 | > 80 | > 80 | > 80 |  |  |  |  |
| O=C1C=CC(=O)N1Cc1ccccc1 | 10.8 µM | 8.3 | 122 | 5.84 | > 80 µM (inactive) | > 80 | 11 | 11.4 | 9.67 | 7.21 | 7.51 |  |  | 12 | 6.91 |

Next, values leading:

| IC50 ([1]; CXCR6, dose range 1) | IC50 [1, 5] [µM] | inhibition [1] [%] | IC50 ([1]; CXCR6, run 2, dose range 1) [µM] | IC50 ([2]; dose range 1) | IC50 [2, 6] [µM] | IC50 [3, 6] [µM] | IC50 ([3]; run 2, dose range 1) [µM] | IC50 ([3]; run 3, dose range 1) [µM] | IC50 [4, 7] [µM] | IC50 ([4]; CCR6, run 2, dose range 1) [µM] | IC50 ([1]; CXCR6, run 1, dose range 2) [µM] | IC50 ([1]; CXCR6, run 2, dose range 2) [µM] | IC50 ([3]; dose range 1) [µM] | IC50 ([4]; CCR6, dose range 1) [µM] | SMILES |
| --- | --- | --- | --- | --- | --- | --- | --- | --- | --- | --- | --- | --- | --- | --- | --- |
| > 80 µM (inactive) | > 80 | 2.4 | > 80 | > 80 µM (inactive) | > 80 | > 80 | > 80 | > 80 | > 80 | > 80 |  |  |  |  | FC(F)(F)c1cnc(NNC(=S)Nc2ccccc2Cl)c(Cl)c1 |
| 11.5 µM | 8.28 |  | 8.56 | > 80 µM (inactive) | > 80 | 7.86 | 5.54 | 10.9 | 5.45 | 7.1 | 5.14 | 7.92 | 7.12 | 3.8 | CC(C)(C)c1ccc(-n2nc(C#N)c(Cl)cc2=O)cc1 |
| > 80 µM (inactive) | > 80 | -25.6 | > 80 | > 80 µM (inactive) | > 80 | > 80 | > 80 | > 80 | > 80 | > 80 |  |  |  |  | Cc1cc(C)c2ccc(N)nc2c1O |
| inactive | 21 | 103 | 15 | 30.8 µM | 30.8 | 18 | 16.9 | 13.5 | 14.9 | 12.9 |  |  | 23.5 | 16.9 | O=C1c2sc3nc4ccccc4n3c2C(=O)N1c1ccccc1Cl |
| > 80 µM (inactive) | > 80 | -34.5 | > 80 | > 80 µM (inactive) | > 80 | > 80 | > 80 | > 80 | > 80 | > 80 |  |  |  |  | COc1ccc(C(=O)/C=C/C(=O)N(CC(=O)NC2CCCCC2)CC2CCCO2)c(O)c1 (stereo not given) |
